Converted amounts (≈) assume the structure as drawn. Structures can show the parent of a compound that is named as a salt. Where two headings read alike, the source gives them in different places. Values belong to the molecule of their own block, whether it stands above or below them.
Experiments:
[1] = system: completely removed guinea-pig tracheas; assay: Constrictive action of histamine di-hydrochloride on completely removed guinea-pig tracheas (in vitro); type: cell-based; conditions: for IC50: Cavia porcellus, read-out: ED50 (the source's name); for IC50 / ED50: Table I; for IC50 / % inhibition / ED50: histamine di-hydrochloride 5.10^-6 g/ml
Method: Thirty white guinea-pigs were used, from which the tracheas were removed, after they had been killed by ethereal anaesthesia. The tracheas were placed in a 50 ml bath of Krebs solution, suitably oxygenated and thermoregulated at a temperature of 37° C. The lower end of the trachea was closed while the upper end was connected to a polythene tube connected to a transducer for measuring volume differences connected to a polygraph, according to D. Jamieson's method 1962, Brit. J. Pharmacol. and Chemiotherapy, 19, 286, partially modified. Both the trachea and the polythene tube were filled with Krebs solution. The responses of the tracheas thus prepared to acetylcholine and histamine were investigated before and after the addition of the product to the bath.

[2] = system: bronchospasm by acetylcholine chloride in guinea-pigs; assay: Bronchospasm by acetylcholine chloride (0.075 mg/kg i.v.) in guinea-pigs (Konzett and Roesler); type: in vivo, guinea-pig; conditions: for ED50: Cavia porcellus, iv
Method: Exp. Path. […] J. Pharmcol. 15, 290. Male guinea-pigs weighing 300-450 g were used under urethane anaesthesia (lg/kg i.p.). The animals were suitably prepared by insertion of a cannula in the jugular vein for intravenous administrations while the trachea was connected to an artificial respiration pump (Palmer) adapted for small animals, which was operated at a frequency of approximately 70 insufflations per minute. The pneumogram was recorded by means of a transducer on a polygraph (Battaglia-Rangoni).

rabbits = assay: Mucolytic activity: mucoproduction in rabbits before and after oral treatment; type: in vivo, rabbit; conditions: for Mucoproduction (mg/h) M ± SD 4-0 h (before the treatment): baseline before treatment; for mucolytic activity (in words): rabbits, oral
Method: (b) Mucolytic activity of compound 1, doxophylline and bromohexyne hydrochloride For these tests the method described by Perry, W. F., Boyd, E. M., J. Pharmacol., 1941, 73, 65 and suitably modified by us was used. New Zealand-type, male, white rabbits weighing 2.8-3.5 kg. were used. Pre-operative preparation consisted of treatment with 9 mg/kg i.m. of a non-stupefying central analgesic ([…] local anaesthesia in the tracheal region with xylocaine (0.9 mg/kg - 1% solution). The surgical operation commenced 15-20 minutes after the pharmacological pre-treatment. The trachea was exposed and a hole approximately 5-6 mm in diameter was made in its ventral side. The trachea was then introduced into the lower arm of a three-way polypropylene cannula, which had been cut suitably, longitudinally so as to connect the hole made in the trachea with the aperture of the third arm (vertical) of the cannula, and thus put it into communication with the outside. Thus, the cannula surrounded the outside of the trachea and was fixed "in loco" with sterile surgical silk thread. A polypropylene container was attached to the vertical arm of the cannula for collecting the mucous (capacity approximately 2 ml), and the wound was then sutured. The tracheal mucous was collected for four hours before the oral administration of the substance under test and for four hours after the treatment.

in vivo = conditions: po
Method: The products were administered in a 0.5% aqueous suspension of carboxymethylcellulose at a concentration of 1 ml/100 g of body weight.

[3] = General statements on side effects, habituation, toxicity and therapeutic index; conditions: among compounds (1)-(4)
[4] = legend of FIG. 2, unit inferred, read-out: ED 50

SMILES: Cn1c(=O)c2[nH]cnc2n(C)c1=O [AMINOPHYLLINE, aminophylline]
IC50 [1]: 206 µg/mL (≈ 1140 µM) | % inhibition ([1]; concentration 100 x 10^-6 g/ml): -10.9% | % inhibition ([1]; concentration 150 x 10^-6 g/ml): -18.7% | % inhibition ([1]; concentration 200 x 10^-6 g/ml): -46.15% | % inhibition ([1]; concentration 300 x 10^-6 g/ml): -79.4% | ED50 [2]: 4.97 mg/kg | ED50 ([2]; read-out: ED50 mg/kg i.v.): 4.97 mg/kg | % Variation in endobronchial pressure after administration of acetylcholine chloride (0,075 mg/kg i.v.) M ± SE ([2]; dose 0.5 mg/kg i.v.): 158.7 ± 24.6% | % inhibition vs. controls ([2]; dose 0.5 mg/kg i.v.): -12.5% | % Variation in endobronchial pressure after administration of acetylcholine chloride (0,075 mg/kg i.v.) M ± SE ([2]; dose 1 mg/kg i.v.): 135.7 ± 21.2% | % inhibition vs. controls ([2]; dose 1 mg/kg i.v.): -25.2% | % Variation in endobronchial pressure after administration of acetylcholine chloride (0,075 mg/kg i.v.) M ± SE ([2]; dose 5 mg/kg i.v.): 117.0 ± 17.4% | % inhibition vs. controls ([2]; dose 5 mg/kg i.v.): -35.5% | % Variation in endobronchial pressure after administration of acetylcholine chloride (0,075 mg/kg i.v.) M ± SE ([2]; dose 10 mg/kg i.v.): 49.9 ± 10.2% | % inhibition vs. controls ([2]; dose 10 mg/kg i.v.): -72.5%

SMILES: CN(Cc1cc(Br)cc(Br)c1N)C1CCCCC1 [BROMOHEXYNE, bromohexyne hydrochloride, reference compound]
Mucoproduction (mg/h) M ± SD 4-0 h (before the treatment) (rabbits; group dosed 400 mg/kg os): 28.9 ± 7.82 mg/h | % Variation with respect to its own base (rabbits; dose 400 mg/kg os): +34.98% | Mucoproduction (mg/h) M ± SD 0-4 h (after the treatment) (rabbits; dose 400 mg/kg os): 39.01 ± 4.34 mg/h

SMILES: Cn1c(=O)c2c(ncn2CC2SCCS2)n(C)c1=O [COMPOUND 1, 7-[2'-(1',3'-dithiolanyl)-methyl]-theophylline]
Mucoproduction (mg/h) M ± SD 4-0 h (before the treatment) (rabbits; group dosed 10 mg/kg os): 30.6 ± 9.43 mg/h | Mucoproduction (mg/h) M ± SD 4-0 h (before the treatment) (rabbits; group dosed 30 mg/kg os): 27.2 ± 5.22 mg/h | Mucoproduction (mg/h) M ± SD 4-0 h (before the treatment) (rabbits; group dosed 100 mg/kg os): 29.7 ± 4.95 mg/h | mucolytic activity compared with bromohexyne hydrochloride (rabbits; compound at 100 mg/kg vs bromohexyne hydrochloride at 400 mg/kg): more active than bromohexyne hydrochloride at a dose of 400 mg/kg | % Variation with respect to its own base (rabbits; dose 10 mg/kg os): +13.95% | Mucoproduction (mg/h) M ± SD 0-4 h (after the treatment) (rabbits; dose 10 mg/kg os): 34.87 ± 10.25 mg/h | % Variation with respect to its own base (rabbits; dose 30 mg/kg os): +26.95% | Mucoproduction (mg/h) M ± SD 0-4 h (after the treatment) (rabbits; dose 30 mg/kg os): 34.53 ± 4.16 mg/h | % Variation with respect to its own base (rabbits; dose 100 mg/kg os): +57.27% | Mucoproduction (mg/h) M ± SD 0-4 h (after the treatment) (rabbits; dose 100 mg/kg os): 46.71 ± 8.82 mg/h | mucolytic activity (in words) (rabbits): dose-related mucolytic activity | IC50 [1]: 126 µg/mL (≈ 423 µM) | % inhibition ([1]; concentration 50 x 10^-6 g/ml): -17.2% | % inhibition ([1]; concentration 100 x 10^-6 g/ml): -32.5% | % inhibition ([1]; concentration 200 x 10^-6 g/ml): -62.5% | % inhibition ([1]; concentration 300 x 10^-6 g/ml): -95.0% | activity in vitro, ranking among the compounds ([1]; on the basis of the results obtained in vitro): the most active | ED50 ([2]; Table II, i.v., read-out: ED50 mg/kg i.v.): 0.99 mg/kg | ED50 [2, 4]: 0.996 mg/kg | % Variation in endobronchial pressure after administration of acetylcholine chloride (0,075 mg/kg i.v.) M ± SE ([2]; dose 0.1 mg/kg i.v.): 166.0 ± 22.4% | % inhibition vs. controls ([2]; dose 0.1 mg/kg i.v.): -8.5% | % Variation in endobronchial pressure after administration of acetylcholine chloride (0,075 mg/kg i.v.) M ± SE ([2]; dose 0.5 mg/kg i.v.): 145.1 ± 18.7% | % inhibition vs. controls ([2]; dose 0.5 mg/kg i.v.): -20.0% | % Variation in endobronchial pressure after administration of acetylcholine chloride (0,075 mg/kg i.v.) M ± SE ([2]; dose 1 mg/kg i.v.): 87.1 ± 15.2% | % inhibition vs. controls ([2]; dose 1 mg/kg i.v.): -52.0% | % Variation in endobronchial pressure after administration of acetylcholine chloride (0,075 mg/kg i.v.) M ± SE ([2]; dose 2 mg/kg i.v.): 51.7 ± 6.5% | % inhibition vs. controls ([2]; dose 2 mg/kg i.v.): -71.5% | antibronchospastic effect relative to aminophylline ([2]; from Table II): approximately five times that of aminophylline | antibronchospastic effect relative to doxophylline ([2]; from Table II): approximately twice that of doxophylline | LD50 at 480 h (in vivo; mouse): 1510 mg/kg | LD50 at 480 h (in vivo; rat): 1840 mg/kg | therapeutic index (in words) [3]: most favourable therapeutic index

IC50 [1]: 837 µg/mL (≈ 2680 µM)
SMILES: Cn1c(=O)c2c(ncn2CC2SCCCS2)n(C)c1=O [COMPOUND 2, 7-[2'-(1',3'-dithianyl)-methyl]-theophylline]
% inhibition ([1]; concentration 100 x 10^-6 g/ml): -12.0% | % inhibition ([1]; concentration 200 x 10^-6 g/ml): -18.5% | % inhibition ([1]; concentration 250 x 10^-6 g/ml): -26.5% | % inhibition ([1]; concentration 400 x 10^-6 g/ml): -38.5%

SMILES: Cn1c(=O)c2c(ncn2CC2SCC[S+]2[O-])n(C)c1=O (centres unmarked) [COMPOUND 3, 7-[2'-(1',3'-dithiolanyl)-methyl]-theophylline sulphoxide]
ED50 [1]: 530.0 10^-6 g/ml | % inhibition ([1]; concentration 100 x 10^-6 g/ml): -14.5% | % inhibition ([1]; concentration 200 x 10^-6 g/ml): -21.5% | % inhibition ([1]; concentration 300 x 10^-6 g/ml): -35.4% | % inhibition ([1]; concentration 400 x 10^-6 g/ml): -47.5%

SMILES: Cn1c(=O)c2c(ncn2CC2SCC[S+]2[O-])n(C)c1=O (centres unmarked) [COMPOUND 4, 7-[2'-(1',3'-dithiolanyl)-methyl]-theophylline sulphoxide]
ED50 [1]: 2241.8 10^-6 g/ml | % inhibition ([1]; concentration 100 x 10^-6 g/ml): -7.5% | % inhibition ([1]; concentration 200 x 10^-6 g/ml): -12.5% | % inhibition ([1]; concentration 300 x 10^-6 g/ml): -20.4% | % inhibition ([1]; concentration 400 x 10^-6 g/ml): -27.8%

IC50 [1]: 175 µg/mL (≈ 657 µM)
SMILES: Cn1c(=O)c2c(ncn2CC2OCCO2)n(C)c1=O [DOXOPHYLLINE, 7-[2'-(1',3'-dioxolanyl)-methyl]-theophylline, reference compound]
Mucoproduction (mg/h) M ± SD 4-0 h (before the treatment) (rabbits; group dosed 100 mg/kg os): 29.8 ± 5.80 mg/h | % Variation with respect to its own base (rabbits; dose 100 mg/kg os): +7.71% | Mucoproduction (mg/h) M ± SD 0-4 h (after the treatment) (rabbits; dose 100 mg/kg os): 32.10 ± 8.26 mg/h | mucolytic activity (in words) (rabbits): no mucolytic activity | % inhibition ([1]; concentration 40 x 10^-6 g/ml): 0% | % inhibition ([1]; concentration 200 x 10^-6 g/ml): -54% | % inhibition ([1]; concentration 400 x 10^-6 g/ml): -78% | % inhibition ([1]; concentration 800 x 10^-6 g/ml): -100% | ED50 [2, 4]: 2.02 mg/kg | % Variation in endobronchial pressure after administration of acetylcholine chloride (0,075 mg/kg i.v.) M ± SE ([2]; dose 0.5 mg/kg i.v.): 153.8 ± 18.4% | % inhibition vs. controls ([2]; dose 0.5 mg/kg i.v.): -15.2% | % Variation in endobronchial pressure after administration of acetylcholine chloride (0,075 mg/kg i.v.) M ± SE ([2]; dose 1 mg/kg i.v.): 133.3 ± 14.8% | % inhibition vs. controls ([2]; dose 1 mg/kg i.v.): -26.5% | % Variation in endobronchial pressure after administration of acetylcholine chloride (0,075 mg/kg i.v.) M ± SE ([2]; dose 2 mg/kg i.v.): 88.5 ± 11.3% | % inhibition vs. controls ([2]; dose 2 mg/kg i.v.): -51.2% | % Variation in endobronchial pressure after administration of acetylcholine chloride (0,075 mg/kg i.v.) M ± SE ([2]; dose 4 mg/kg i.v.): 56.4 ± 8.8% | % inhibition vs. controls ([2]; dose 4 mg/kg i.v.): -68.9%

SMILES: CC(=O)N[C@@H](CS)C(=O)O [N--acetylcysteine, reference compound]
Mucoproduction (mg/h) M ± SD 4-0 h (before the treatment) (rabbits; group dosed 400 mg/kg os): 27.7 ± 5.50 mg/h | % Variation with respect to its own base (rabbits; dose 400 mg/kg os): +16.21% | Mucoproduction (mg/h) M ± SD 0-4 h (after the treatment) (rabbits; dose 400 mg/kg os): 32.19 ± 3.89 mg/h

From patent publication US4868186A, “Theophyllinemethyldithiolan and theophyllinemethyldithianyl derivatives having antibronchospastic antitussive and mucolytic activity” (Istituto Biologico Chemioterapico ABC S.p.A., priority 1986, dated 1989)
